Experiments:
[1] = system: HT-29 human colon cancer cell line; test: Cytotoxicity assay; format: cell-based; settings: HT-29 cells, two days' incubation, SRB; ED50 > 20 µM considered inactive
[2] = system: Leishmania mexicana promastigotes; test: Promastigote assay, live/dead parasites by flow cytometry; format: cell-based; settings: 48 h, read-out: L. mexicana promastigotes IC50
NF-κB (p65) = NF-κB (p65) (Homo sapiens, UniProt Q04206); test: Enzyme-based ELISA NF-κB; format: biochemical
Sequence of NF-κB (p65) (Q04206 whole entry): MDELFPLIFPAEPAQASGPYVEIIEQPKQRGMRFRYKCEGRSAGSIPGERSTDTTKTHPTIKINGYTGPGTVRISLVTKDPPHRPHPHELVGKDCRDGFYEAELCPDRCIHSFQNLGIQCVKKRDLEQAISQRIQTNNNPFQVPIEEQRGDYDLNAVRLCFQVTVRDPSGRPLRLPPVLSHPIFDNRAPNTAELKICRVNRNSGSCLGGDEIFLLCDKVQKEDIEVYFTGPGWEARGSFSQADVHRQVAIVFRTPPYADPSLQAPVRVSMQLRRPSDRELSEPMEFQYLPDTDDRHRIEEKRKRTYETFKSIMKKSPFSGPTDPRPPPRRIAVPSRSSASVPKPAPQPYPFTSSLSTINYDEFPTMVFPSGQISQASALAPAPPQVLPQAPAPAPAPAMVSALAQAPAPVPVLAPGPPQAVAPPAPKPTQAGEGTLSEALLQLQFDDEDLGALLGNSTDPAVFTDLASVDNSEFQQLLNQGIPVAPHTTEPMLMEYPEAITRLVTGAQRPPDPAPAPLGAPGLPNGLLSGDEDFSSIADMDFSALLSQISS
Sequence of NF-κB (p65) (P19838 1-433 partner limits assumed): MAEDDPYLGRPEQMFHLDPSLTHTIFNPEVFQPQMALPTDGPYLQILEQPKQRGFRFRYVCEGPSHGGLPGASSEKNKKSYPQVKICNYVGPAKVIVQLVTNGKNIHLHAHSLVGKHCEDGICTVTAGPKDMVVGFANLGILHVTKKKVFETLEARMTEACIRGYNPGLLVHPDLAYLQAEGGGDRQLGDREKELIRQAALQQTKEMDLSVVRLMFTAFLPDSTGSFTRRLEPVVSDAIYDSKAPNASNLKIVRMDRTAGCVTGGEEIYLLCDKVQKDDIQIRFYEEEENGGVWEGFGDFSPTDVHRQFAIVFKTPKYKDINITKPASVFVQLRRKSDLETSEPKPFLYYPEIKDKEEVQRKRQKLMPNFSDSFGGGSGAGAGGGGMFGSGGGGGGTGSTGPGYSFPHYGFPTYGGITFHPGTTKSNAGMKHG

Row | Compound | HT-29 ED50 [1] [µM] | IC50 [2] [µM] | IC50 (NF-κB (p65)) [µM]
1 | 21-deoxy-N(4)-methyl-21-oxo-N(4),21-secotalpinine [Compound 2] | >20 |  | 
2 | C[C@@H]1[C@H](O)[C@@H](C)/C=C/C=C/C=C/C=C/C=C/C=C/C=C/[C@H](O[C@@H]2O[C@H](C)[C@@H](O)[C@H](N)[C@@H]2O)C[C@@H]2O[C@](O)(C[C@@H](O)C[C@@H](O)[C@H](O)CC[C@@H](O)C[C@@H](O)CC(=O)O[C@H]1C)C[C@H](O)[C@H]2C(=O)O [Amphotericin B, reference compound] |  | 0.09 | 
3 | CC1=C(C=O)[C@@H]2C[C@H]3c4c(c5ccccc5n4C)C[C@@H]([C@@H]2CO1)N3C [Compound 3, alstonerinal] | 8.6 | 105 | > 20
4 | CC(=O)C1=COC[C@@H]2[C@H]1C[C@H]1c3c(c4ccccc4n3C)C[C@@H]2N1C [Compound 4, alstonerine] | >20 | 145 | > 20
5 | C[C@@H]1OC[C@@H]2[C@@H](C[C@H]3c4c(c5ccccc5n4C)C[C@@H]2N3C)[C@H]1CO [Compound 5, macrocarpine B] |  | > 200 | > 20
6 | C/C=C1/CN2[C@H]3C[C@@H]1[C@@H](CO)[C@@H]2Cc1c3n(C)c2ccccc12 [Compound 6, affinisine] | >20 |  | 
7 | C/C=C1\CN2CCC34CC5C6CC7c8c(c9ccccc9n8C)CC(C6COC5(C)OC35C2CC1C(C(=O)OC)N5c1ccccc14)N7C (stereo not drawn) [Compound 7, villalstonine] | 8.0 |  | 
8 | C/C=C1/C[N+]2(C)CC[C@@]34C[C@H]5[C@@H]6C[C@H]7c8c(c9ccccc9n8C)C[C@@H]([C@@H]6CO[C@@]5(C)O[C@@]35[C@@H]2C[C@@H]1[C@@H](C(=O)OC)N5c1ccccc14)N7C.[Cl-] (stereo partly drawn) [Compound 10, villalstonidine E] | 6.5 |  | 
9 | CC(=O)O[C@H]1C(=O)[C@@]2(C)[C@H]([C@H](OC(=O)c3ccccc3)[C@]3(O)C[C@H](OC(=O)[C@H](O)[C@@H](NC(=O)c4ccccc4)c4ccccc4)C(C)=C1C3(C)C)[C@]1(OC(C)=O)CO[C@@H]1C[C@@H]2O [Paclitaxel, reference compound] | 0.006 |  | 
10 | COc1ccc([C@@]23Oc4cc(OC)cc(OC)c4[C@]2(O)[C@H](O)[C@H](C(=O)N(C)C)[C@H]3c2ccccc2)cc1 [Rocaglamide, reference compound] | 0.005 |  | 
11 | N(4)-methyltalpinine [Compound 1] | >20 |  | 
12 | villalstonidine D [Compound 9] | >20 |  | 
13 | villalstonine N(4)-oxide [Compound 8] | >20 |  | 
